≈ marks a conversion by molar mass, not a printed value.
Columns and labels:
K562 cell line [1] = test: Assessment of intracellular reactive oxygen species (CM-H2DCFDA); type: cell-based, human
Description: Cells (1× 10^5) were cultured in 12-well plates and were stained with 10 μM of chloromethyl 2′,7′-dichlorodihydrofluorescein diacetate (CM-H2DCFDA) for 30 min at 37 °C. Briefly, the cells were treated with compound 1m at two different concentrations (19.5 and 39.0 µg/mL) and control (H2O2 at 50 µM) to later be incubated for 2 and 4 h. After this time, cells were analyzed using CytoFlex flow cytometry (Beckman Coulter, Indianapolis, IN, USA).

K562 cell line [2] = test: Bioassay of viability in leukemic cell lines (DAPI, flow cytometry); type: cell-based, human; conditions: for IC50: Homo sapiens, K562, 48 h
From the text: (§1) Chronic myeloid leukemia (K562; ATCC CCL-243), acute myeloid leukemia (HL60; ATCC CCL-240), and green monkey kidney cells (Vero, ATCCCCL-81) from the American Type Culture Collection (ATCC) were provided by María Antonieta Chávez Gónzalez from Unidad de Investigación Oncológica, Hospital de Oncología, Centro Médico Nacional, Instituto Mexicano del Seguro Social (IMSS, Ciudad de México, México). The K562 cell line was maintained with RPMI medium at 10% FBS, the HL60 cell line was maintained with IMDM medium at 20% FBS, and the VERO cell line was maintained with DMEM medium at 10% FBS; 1% penicillin-streptomycin was added to both cell lines and incubated at an atmosphere of culture with 95% humidity and 5% CO2 at 37 °C. All evaluation was performed between 4 and 5 cell passages.
(§2) In all cases, medium with DMSO (0.1%) was used as a negative control, and etoposide was used as positive control for K562, HL60, Vero cell lines, and normal MNC. All tests were carried out in triplicate.
(§3) A total of 2 × 10^5 cells/well were cultured into 24-well plates and treated with different concentrations of four compounds (0.1, 1, 10, and 100 μg/mL) for 48 h. At the end of this time, the cells were collected and stained with 4′,6-diamidino-2-phenylindole dihydrochloride (DAPI) at 500 ng/mL for 30 min, according to manufacturer instructions, for 15 min in darkness. The samples were then analyzed by flow cytometry using a CytoFlex flow cytometer (Beckman Coulter, Indianapolis, IN, USA).
(§4) All cytometric data were analyzed using FlowJo^TM v10.6 software. Results of viability are expressed as the concentration of agent that reduces cell growth by 50% (IC50), calculated by GraphPad Prism 5 software. The data were expressed as means ± SEM. Statistical significance was calculated with a one-way analysis of variance (ANOVA) followed by Dunnett’s post-hoc test, applying a p < 0.05 significance level.

HL60 cell line = test: as above; type: cell-based, human; conditions: for IC50: Homo sapiens, HL-60, HL60, 48 h
From the text: as §1, §2, §3, §4

Vero cell line = test: Bioassay of viability in Vero cell line (SRB); type: cell-based, green monkey; conditions: Chlorocebus sabaeus; Vero normal cell line, 48 h
From the text: as §1
The cells (1 × 10^4 cells/well) were seeded onto 96-well plates and incubated at 37 °C and 5% CO2 until reaching 70–80% confluence. The medium was replaced with fresh medium containing the […] different concentrations (0.1, 1, 10, and 100 μg/mL) of compounds for 48 h. After 100 μL of 10% trichloroacetic acid were added to each well, and cells were incubated for 30 min at 4 °C. Then the supernatant was removed, 100 μL of sulforhodamine B (SRB) at 0.1% with 1% of acetic acid were added, and incubated again for 15 min. Subsequently, washings were carried out with 1% acetic acid; and finally, the dye was solubilized with 200 uL of tris-base at 10 mM; and the optical density was measured at 560 nm using a GloMax spectrophotometer (Promega, WI, USA).
as §4

[3] = system: peripheral blood mononuclear cells (MNC); test: Viability test in normal mononuclear cells (DAPI, flow cytometry); type: cell-based; conditions: Homo sapiens, PBMC, 48 h
Description: Normal mononuclear cells were obtained from normal human peripheral blood monocytes and donated by the corresponding author (Moo-Puc) of the manuscript submitted. The MNC was purified with FicollPaque Plus (Pharmacia Biotech, Uppsala, Sweden) by centrifugation at 400× g at room temperature for 30 min according to the manufacturer’s protocol. Once the MNC were obtained, they were resuspended in RPMI medium (ATCC) with 10% FBS, and they were counted using a hemocytometer, previously stained with a trypan blue solution, verifying the viability of 95% [61].
Cells were plated at 2 × 10^5 cells/well in 24-well plates and incubated with different concentrations of compounds T1m (0.1, 1, 10, and 100 μg/mL) for 48 h. RPMI with 10% FBS was used as a culture medium for cell growth. After this time, cells were collected, washed with PBS, and stained with DAPI at 500 ng/mL for 30 min, according to manufacturer instructions. Cells analysis was carried out in a CytoFlex flow cytometer (Beckman Coulter, Indianapolis, IN, USA).
All cytometric data were analyzed using FlowJo^TM v10.6 software. […] The data were expressed as means ± SEM. Statistical significance was calculated with a one-way analysis of variance (ANOVA) followed by Dunnett’s post-hoc test, applying a p < 0.05 significance level.

K562 cells [4] = test: Apoptosis assay (annexin V-FITC / 7-AAD); type: cell-based, human
Description: Cells (2 × 10^5) were cultured in 24-well plates and treated with compound T1m at two different concentrations (19.5 and 39.0 µg/mL), to later be incubated for 18, 24, and 48 h. After this time, cells were washed with PBS and stained with annexin V-FITC and 7-AAD apoptosis kit (BD Bioscience) and incubated in the dark for 15 min. Then they were analyzed by CytoFlex flow cytometry (Beckman Coulter, Indianapolis, IN, USA).

K562 cell line [5] = test: Assessment of mitochondrial membrane potential (rhodamine 123); type: cell-based, human; conditions: 18 h, Rho-123
Description: Cells (1× 10^5) were cultured in 12-well plates and treated with compound 1m at two different concentrations (19.5 and 39.0 µg/mL), to later be incubated for 18 h. After this time, cells were stained with 5 μM of rhodamine 123 (Rho-123) and incubated for 30 min at 37 °C. Briefly, cells were washed with PBS and analyzed using a Cytoflex flow cytometer (Beckman Coulter, Indianapolis, IN, USA).

K562 cells [6] = test: Cell cycle assay (DAPI, flow cytometry); type: cell-based, human
Description: One million cells of K562 were cultured in 12-well plates and incubated for 18, 24, and 48 h with compound T1m at two different concentrations (19.5 and 39.0 μg/mL). After this time, the cells were collected and centrifuged at 300× g at room temperature for 5 min. The cells were resuspended in PBS, added absolute ethanol on ice, and incubated for 1 h at 4 °C. After that. Cells were centrifuged at 300× g at 4 °C for 5 min. Next, cells were washed with PBS 3% FBS and permeabilized for 20 min with 0.1% triton. After, the cells were stained with DAPI at 500 ng/mL for 1 h. After this procedure, cells were analyzed using […]. Cells analysis was carried out in an Attune flow cytometer (Thermo Fisher Scientific, Carlsbad, CA, USA).

With `OO` [Compound H2O2, H2O2, reference compound] as the compound, how does the “ROS increase vs negative control” value (K562 cell line [1]; K562, damage control (50 µM), 2 h) read?
Its value is “seven-fold”.

Which IC50 (K562 cell line [2]) does the source give for `C=C(C)[C@@H]1CC[C@]2(C(=O)O)CC[C@]3(C)C(CCC4[C@@]5(C)CC[C@@H](O)[C@](C)(CO)C5CC[C@]43C)C12` (stereo partly drawn) [Compound T1, 3α,24-dihydroxylup-20(29)-en-28-oic acid] here?
Its IC50 is 100 ± 1 µg/mL (≈ 212 µM).

And the “selectivity index (IS)” value (K562 cell line [2]; IC50 Vero over IC50 K562)?
Its value is 1.37.

What about the IC50 (HL60 cell line) of the same compound?
The IC50 was greater than 100 µg/mL.

And the IC50 (Vero cell line)?
Its IC50 is 137.2 ± 1.1 µg/mL (≈ 290 µM).

With `C=C(C)[C@@H]1CC[C@]2(C(=O)O)CC[C@]3(C)C(CCC4[C@@]5(C)CC[C@@H](OC(C)=O)[C@](C)(CO)C5CC[C@]43C)C12` (stereo partly drawn) [Compound T1Ac, 3α-acetyl-24-hydroxylup-20(29)-en-28-oic acid] as the compound, how does the IC50 (K562 cell line [2]) read?
The IC50 was greater than 100 µg/mL.

And the IC50 (HL60 cell line)?
The IC50 was greater than 100 µg/mL.

And the IC50 (Vero cell line)?
The IC50 was greater than 200 µg/mL.

With `C=C(C)[C@@H]1CC[C@]2(C(=O)O)CC[C@]3(C)C(CCC4[C@@]5(C)CC[C@@H](OC)[C@](C)(CO)C5CC[C@]43C)C12` (stereo partly drawn) [Compound T1m, 3α-methoxy-24-hydroxylup-20(29)-en-28-oic acid] as the compound, how does the IC50 [3] read?
Its IC50 is 86.5 ± 1.2 µg/mL (≈ 178 µM).

And the IC50 (K562 cell line [2])?
Its IC50 is 39.5 ± 1.1 µg/mL (≈ 81.1 µM).

What about the “selectivity index (IS)” value (K562 cell line [2]; IC50 MNC over IC50 K562) of the same compound?
The value was 2.19.

And the “selectivity index (IS)” value (K562 cell line [2]; IC50 Vero over IC50 K562)?
Its value is 1.69.

And the IC50 (HL60 cell line)?
Its IC50 is 68.6 ± 1.2 µg/mL (≈ 141 µM).

And the “selectivity index (IS)” value (HL60 cell line; IC50 MNC over IC50 HL60)?
Its value is 1.26.

And the “apoptotic cell population (positive annexin V-FITC)” value (“apoptotic cell population” for short) (K562 cells [4]; K562, 19.5 μg/mL, 48 h)?
Its value is 11.91 ± 1.04%.

And the “apoptotic cell population” value (K562 cells [4]; K562, 39.0 μg/mL, 18 h)?
The value was 12.50 ± 0.65%.

And the “apoptotic cell population” value (K562 cells [4]; K562, 39.0 μg/mL, 48 h)?
Its value is 27.47 ± 1.23%.

And the “apoptotic cell population” value (K562 cells [4]; K562, at IC50 (39.0 μg/mL), 24 h)?
The value was 24.35 ± 1.04%.

What about the “ROS increase vs negative control” value (K562 cell line [1]; K562, 19.5 μg/mL, 2 h) of the same compound?
The value was “five-fold”.

What about the “ROS increase vs negative control” value (K562 cell line [1]; K562, 19.5 μg/mL, 4 h) of the same compound?
Its value is “six-fold”.

What about the “ROS increase vs negative control” value (K562 cell line [1]; K562, 39.0 μg/mL, 2 h) of the same compound?
The value was “seven-fold”.

And the “ROS increase vs negative control” value (K562 cell line [1]; K562, 39.0 μg/mL, 4 h)?
Its value is “nine-fold”.

And the “MMP (mitochondrial membrane potential) compared with negative control” value (K562 cell line [5]; K562, 19.5 μg/mL)?
The value was “approximately 45%”.

And the “MMP (mitochondrial membrane potential) compared with negative control” value (K562 cell line [5]; K562, 39.0 μg/mL)?
The value was 67%.

What about the IC50 (Vero cell line) of the same compound?
Its IC50 is 66.8 ± 1 µg/mL (≈ 137 µM).

And the “cell cycle distribution vs negative control” value (K562 cells [6]; K562, 19.5 μg/mL, 18 h)?
The value was “No difference”.

And the sub-G0 population (K562 cells [6]; K562, 39.0 μg/mL, 18 h)?
Its sub-G0 population is 7.29 ± 0.05%.

And the sub-G0 population (K562 cells [6]; K562, 39.0 μg/mL, 24 h)?
Its sub-G0 population is 13.30 ± 1.20%.

What about the sub-G0 population (K562 cells [6]; K562, at IC50 (39.0 μg/mL), 48 h) of the same compound?
The sub-G0 population was 85.85 ± 0.15%.

Which IC50 (K562 cell line [2]) does the source give for `C=C(C)[C@@H]1CC[C@]2(C(=O)O)CC[C@]3(C)C(CCC4[C@@]5(C)CC[C@H]6OC(C)(C)OC[C@@]6(C)C5CC[C@]43C)C12` (stereo partly drawn) [Compound T2, 3α,23-O-isopropylidenyl-3α,23-dihydroxylup-20(29)-en-28-oic acid] here?
Its IC50 is greater than 100 µg/mL.

What about the IC50 (HL60 cell line) of the same compound?
Its IC50 is greater than 100 µg/mL.

What about the IC50 (Vero cell line) of the same compound?
The IC50 was greater than 200 µg/mL.

Which results are given for `C=C(C)[C@@H]1CC[C@]2(C(=O)OC)CC[C@]3(C)C(CCC4[C@@]5(C)CC[C@H]6OC(C)(C)OC[C@@]6(C)C5CC[C@]43C)C12` (stereo partly drawn) [Compound T2COOMe, methyl ester of 3α,23-O-isopropylidenyl-3α,23-dihydroxylup-20(29)-en-28-oic acid]?
IC50 (K562 cell line [2]): > 100 µg/mL; IC50 (HL60 cell line): > 100 µg/mL; IC50 (Vero cell line): > 200 µg/mL

Which results are given for `COc1cc([C@@H]2c3cc4c(cc3[C@@H](O[C@@H]3O[C@@H]5CO[C@@H](C)O[C@H]5[C@H](O)[C@H]3O)[C@H]3COC(=O)[C@H]23)OCO4)cc(OC)c1O` [Etoposide, etoposide, reference compound]?
IC50 [3]: > 100 µg/mL; IC50 (K562 cell line [2]): 14.7 ± 1.2 µg/mL (≈ 25 µM); selectivity index (IS) (K562 cell line [2]; IC50 MNC over IC50 K562): > 6.80; selectivity index (IS) (K562 cell line [2]; IC50 Vero over IC50 K562): 2.00; IC50 (HL60 cell line): 1.3 ± 0.3 µg/mL (≈ 2.21 µM); selectivity index (IS) (HL60 cell line; IC50 MNC over IC50 HL60): > 76.92; selectivity index (IS) (HL60 cell line; IC50 Vero over IC50 HL60): 22.63; apoptotic cell population (positive annexin V-FITC) (K562 cells [4]; K562, positive control, 18 h): 13.34 ± 0.04%; apoptotic cell population (positive annexin V-FITC) (K562 cells [4]; K562, positive control, 24 h): 17.91 ± 0.06%; apoptotic cell population (positive annexin V-FITC) (K562 cells [4]; K562, positive control, 48 h): 32.60 ± 0.55%; ROS increase vs negative control (K562 cell line [1]; K562, positive control, 2 h): six-fold; IC50 (Vero cell line): 29.4 ± 1.1 µg/mL (≈ 50 µM); G2 population (K562 cells [6]; K562, 14.7 μg/mL, 18 h, positive control): increase

Source: paper PMC9738192, “Lupane Triterpene Derivatives Improve Antiproliferative Effect on Leukemia Cells through Apoptosis Induction” (Molecules, 2022)
